Source: PubChem BioAssay AID330 (DTP/NCI, 2004)
“And” between values parts separate entries of the source, which are not always exact repeats. Equal entries are not always repeated. Inconclusive results and toxic doses are left out.

Tested on: P388 leukemia ip, CD2F1 mice, survival T/C
Assay: NCI In Vivo Anticancer Drug Screen. Data for tumor model P388 Leukemia (intraperitoneal) in CD2F1 (CDF1) mice
Conditions: endpoint: median survival time, higher = longer survival
How it was run: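 Mice carrying the transplanted tumor received test compound or vehicle. Survival was recorded in each group, and the value is the treated-group measurement divided by that of the vehicle-treated control group.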

[1] = dose: 60.0 mg/kg/injection, schedule: Q01DX005 (ip), vehicle: saline with Tween-80
[2] = dose: 120.0 mg/kg/injection, schedule: Q01DX005 (ip), vehicle: saline with Tween-80
[3] = dose: 240.0 mg/kg/injection, schedule: Q01DX005 (ip), vehicle: saline with Tween-80

`CO[C@H]1C[C@](C)(O)Cc2cc3c(c(O)c21)C(=O)c1c(O)cc2c(c1C3=O)O[C@@H]1O[C@@]2(C)[C@H](O)[C@@H](N(C)C)[C@@H]1O` was tested, and the T/C (dose: 1.5 mg/kg/injection, schedule: Q01DX005 (iv), vehicle: clinical formulation) was 115 % of control, the T/C (dose: 1.56 mg/kg/injection, schedule: Q01DX009 (ip), vehicle: other) was 156 % of control and 166 % of control and the T/C (dose: 1.6 mg/kg/injection, schedule: Q01DX009 (oral), vehicle: other) was 95 % of control. The T/C (dose: 2.5 mg/kg/injection, schedule: Q01DX005 (ip), vehicle: clinical formulation) was 158 % of control and 166 % of control, the T/C (dose: 2.5 mg/kg/injection, schedule: Q01DX005 (ip), vehicle: other) was 165 % of control and the T/C (dose: 3.0 mg/kg/injection, schedule: Q01DX005 (iv), vehicle: other) was 124 % of control. The T/C (dose: 3.0 mg/kg/injection, schedule: Q01DX009 (ip), vehicle: other) was 159 % of control, the T/C (dose: 3.12 mg/kg/injection, schedule: Q01DX009 (ip), vehicle: saline + alcohol) was 157 % of control and the T/C (dose: 3.13 mg/kg/injection, schedule: Q01DX009 (oral), vehicle: other) was 100 % of control and 102 % of control. For the same compound, the T/C (dose: 3.13 mg/kg/injection, schedule: Q01DX009 (oral), vehicle: saline) was 103 % of control, the T/C (dose: 4.5 mg/kg/injection, schedule: Q01DX005 (ip), vehicle: other) was 156 % of control and 161 % of control and the T/C (dose: 4.5 mg/kg/injection, schedule: Q01DX005 (iv), vehicle: clinical formulation) was 160 % of control and 169 % of control. For the same compound, the T/C (dose: 5.0 mg/kg/injection, schedule: Q01DX005 (ip), vehicle: clinical formulation) was 185 % of control and 190 % of control, the T/C (dose: 5.0 mg/kg/injection, schedule: Q01DX005 (ip), vehicle: distilled water + Tween-80) was 158 % of control and 178 % of control and the T/C (dose: 5.0 mg/kg/injection, schedule: Q01DX005 (ip), vehicle: other) was 185 % of control. The T/C (dose: 6.25 mg/kg/injection, schedule: Q01DX009 (ip), vehicle: saline + alcohol) was 157 % of control, the T/C (dose: 6.25 mg/kg/injection, schedule: Q01DX009 (oral), vehicle: other) was 110 % of control and 113 % of control and 122 % of control and the T/C (dose: 6.25 mg/kg/injection, schedule: Q04DX003 (ip), vehicle: other) was 162 % of control and 165 % of control. The T/C (dose: 6.48 mg/kg/injection, schedule: Q04DX003 (ip), vehicle: other) was 180 % of control, the T/C (dose: 6.7 mg/kg/injection, schedule: Q01DX005 (ip), vehicle: other) was 172 % of control and 176 % of control and the T/C (dose: 6.7 mg/kg/injection, schedule: Q01DX005 (iv), vehicle: clinical formulation) was 187 % of control and 197 % of control. For the same compound, the T/C (dose: 6.7 mg/kg/injection, schedule: Q01DX005 (iv), vehicle: other) was 161 % of control and 162 % of control, the T/C (dose: 10.0 mg/kg/injection, schedule: Q01DX005 (ip), vehicle: clinical formulation) was 235 % of control and 238 % of control and the T/C (dose: 10.0 mg/kg/injection, schedule: Q01DX005 (ip), vehicle: distilled water + Tween-80) was 180 % of control and 243 % of control. For the same compound, the T/C (dose: 10.0 mg/kg/injection, schedule: Q01DX005 (ip), vehicle: other) was 195 % of control (2×) and 218 % of control, the T/C (dose: 10.0 mg/kg/injection, schedule: Q01DX005 (iv), vehicle: clinical formulation) was 208 % of control and 211 % of control and the T/C (dose: 10.0 mg/kg/injection, schedule: Q01DX005 (iv), vehicle: other) was 176 % of control and 193 % of control. For the same compound, the T/C (dose: 10.8 mg/kg/injection, schedule: Q04DX003 (ip), vehicle: other) was 183 % of control, the T/C (dose: 12.5 mg/kg/injection, schedule: Q01DX001 (ip), vehicle: other) was 155 % of control and 157 % of control and the T/C (dose: 12.5 mg/kg/injection, schedule: Q01DX001 (sc), vehicle: other) was 103 % of control. For the same compound, the T/C (dose: 12.5 mg/kg/injection, schedule: Q01DX009 (ip), vehicle: saline + alcohol) was 178 % of control, the T/C (dose: 12.5 mg/kg/injection, schedule: Q01DX009 (oral), vehicle: other) was 158 % of control and the T/C (dose: 12.5 mg/kg/injection, schedule: Q01DX009 (oral), vehicle: saline) was 156 % of control. The T/C (dose: 12.5 mg/kg/injection, schedule: Q04DX003 (ip), vehicle: other) was 166 % of control and 187 % of control, the T/C (dose: 15.0 mg/kg/injection, schedule: Q01DX005 (ip), vehicle: other) was 224 % of control and 237 % of control and the T/C (dose: 15.0 mg/kg/injection, schedule: Q01DX005 (iv), vehicle: clinical formulation) was 215 % of control and 224 % of control. The T/C (dose: 15.0 mg/kg/injection, schedule: Q01DX005 (iv), vehicle: other) was 196 % of control, the T/C (dose: 15.0 mg/kg/injection, schedule: Q01DX009 (oral), vehicle: other) was 197 % of control and the T/C (dose: 18.0 mg/kg/injection, schedule: Q04DX003 (ip), vehicle: other) was 240 % of control. For the same compound, the T/C (dose: 20.0 mg/kg/injection, schedule: Q01DX005 (ip), vehicle: clinical formulation) was 117 % of control and 284 % of control, the T/C (dose: 20.0 mg/kg/injection, schedule: Q01DX005 (ip), vehicle: distilled water + Tween-80) was 270 % of control and 280 % of control and the T/C (dose: 20.0 mg/kg/injection, schedule: Q01DX005 (ip), vehicle: other) was 284 % of control. The T/C (dose: 22.0 mg/kg/injection, schedule: Q01DX009 (oral), vehicle: other) was 231 % of control, the T/C (dose: 22.5 mg/kg/injection, schedule: Q01DX005 (ip), vehicle: other) was 346 % of control and the T/C (dose: 25.0 mg/kg/injection, schedule: Q01DX001 (ip), vehicle: other) was 150 % of control and 160 % of control. For the same compound, the T/C (dose: 25.0 mg/kg/injection, schedule: Q01DX001 (sc), vehicle: other) was 106 % of control and 112 % of control, the T/C (dose: 25.0 mg/kg/injection, schedule: Q01DX009 (ip), vehicle: saline + alcohol) was 231 % of control and the T/C (dose: 25.0 mg/kg/injection, schedule: Q01DX009 (oral), vehicle: other) was 111 % of control and 211 % of control and 96 % of control. For the same compound, the T/C (dose: 25.0 mg/kg/injection, schedule: Q01DX009 (oral), vehicle: saline) was 229 % of control, the T/C (dose: 25.0 mg/kg/injection, schedule: Q04DX003 (ip), vehicle: other) was 192 % of control and 193 % of control and the T/C (dose: 30.0 mg/kg/injection, schedule: Q04DX003 (ip), vehicle: other) was 247 % of control. The T/C (dose: 50.0 mg/kg/injection, schedule: Q01DX001 (ip), vehicle: other) was 157 % of control and 197 % of control, the T/C (dose: 50.0 mg/kg/injection, schedule: Q01DX001 (sc), vehicle: other) was 100 % of control and 122 % of control and the T/C (dose: 50.0 mg/kg/injection, schedule: Q01DX009 (oral), vehicle: other) was 101 % of control and 103 % of control and 91 % of control. For the same compound, the T/C (dose: 50.0 mg/kg/injection, schedule: Q01DX009 (oral), vehicle: saline) was 91 % of control, the T/C (dose: 50.0 mg/kg/injection, schedule: Q04DX003 (ip), vehicle: other) was 182 % of control and 252 % of control and the T/C (dose: 100.0 mg/kg/injection, schedule: Q01DX001 (ip), vehicle: other) was 169 % of control. For the same compound, the T/C (dose: 100.0 mg/kg/injection, schedule: Q01DX001 (sc), vehicle: other) was 105 % of control, the T/C (dose: 200.0 mg/kg/injection, schedule: Q01DX001 (ip), vehicle: other) was 175 % of control and the T/C (dose: 200.0 mg/kg/injection, schedule: Q04DX003 (ip), vehicle: other) was 95 % of control.
`COc1cccc(-c2ccncc2)c1` was tested, and the T/C (dose: 50.0 mg/kg/injection, schedule: Q01DX005 (ip), vehicle: saline with Tween-80) was 102 % of control, the T/C (dose: 100.0 mg/kg/injection, schedule: Q01DX005 (ip), vehicle: saline with Tween-80) was 93 % of control and the T/C (dose: 200.0 mg/kg/injection, schedule: Q01DX005 (ip), vehicle: saline with Tween-80) was 93 % of control.
For `OC12CC3CC(CN1)CC(C3)C2`, the T/C (dose: 50.0 mg/kg/injection, schedule: Q01DX005 (ip), vehicle: Klucel (hydroxypropylcellulose) (HPC)) was 109 % of control, the T/C (dose: 100.0 mg/kg/injection, schedule: Q01DX005 (ip), vehicle: Klucel (hydroxypropylcellulose) (HPC)) was 99 % of control and the T/C (dose: 200.0 mg/kg/injection, schedule: Q01DX005 (ip), vehicle: Klucel (hydroxypropylcellulose) (HPC)) was 95 % of control.
For `Cc1ccc(C(=O)CCN(C)C)c(C)c1`, the T/C (dose: 15.0 mg/kg/injection, schedule: Q01DX005 (ip), vehicle: saline) was 106 % of control, the T/C (dose: 30.0 mg/kg/injection, schedule: Q01DX005 (ip), vehicle: saline) was 100 % of control and the T/C (dose: 60.0 mg/kg/injection, schedule: Q01DX005 (ip), vehicle: saline) was 89 % of control and 97 % of control.
In the case of `CC1([N+](=O)[O-])C(=O)C2(N3CCCC3)CCCC2C1c1ccccc1` (stereo unspecified), the T/C (dose: 60.0 mg/kg/injection, schedule: Q01DX005 (ip), vehicle: Klucel (hydroxypropylcellulose) (HPC)) is reported as 99 % of control, the T/C (dose: 120.0 mg/kg/injection, schedule: Q01DX005 (ip), vehicle: Klucel (hydroxypropylcellulose) (HPC)) is reported as 91 % of control and the T/C (dose: 240.0 mg/kg/injection, schedule: Q01DX005 (ip), vehicle: Klucel (hydroxypropylcellulose) (HPC)) is reported as 90 % of control.
In the case of `CCCCNC(=S)N/N=C1/C=C2C=CC3C(CCC4(C)C(OC(C)=O)CCC34)C2(C)CC1` (stereo unspecified), the T/C (dose: 100.0 mg/kg/injection, schedule: Q01DX001 (ip), vehicle: saline) is reported as 99 % of control, the T/C (dose: 200.0 mg/kg/injection, schedule: Q01DX001 (ip), vehicle: saline) is reported as 98 % of control and the T/C (dose: 400.0 mg/kg/injection, schedule: Q01DX001 (ip), vehicle: saline) is reported as 97 % of control.
With `COc1ccc(C(C)c2cc3c(cc2OCC(C)=O)OCO3)cc1` (stereo unspecified) the T/C [1] was 97 % of control, the T/C [2] was 94 % of control and the T/C [3] was 94 % of control.
`Cc1ccc(C)c(NC(=O)CCC(=O)C(C#N)c2nc3ccccc3s2)c1` (stereo unspecified) was tested, and the T/C [1] was 103 % of control, the T/C [2] was 102 % of control and the T/C [3] was 97 % of control.
